Experimental data from paper PMC7803973, “Structural basis of malaria parasite phenylalanine tRNA-synthetase inhibition by bicyclic azetidines” (Nature Communications, 2021).
“And” between values parts separate entries of the source, which are not always exact repeats. Equal values may be shown once. “Also recorded” adds a separate entry of the source.

Key:
PfcFRS = biological target: T1, PfcFRS (Plasmodium falciparum, UniProt Q8I246); assay: PfcFRS mode of inhibition study (malachite green); assay type: biochemical; settings: for 1/v (0.5 × IC50 ): inhibitor 0.5 × IC50; for 1/V (1 × IC50 ) / 1/v (1 × IC50 ): inhibitor 1 × IC50
T1 sequence (Q8I246 1-575): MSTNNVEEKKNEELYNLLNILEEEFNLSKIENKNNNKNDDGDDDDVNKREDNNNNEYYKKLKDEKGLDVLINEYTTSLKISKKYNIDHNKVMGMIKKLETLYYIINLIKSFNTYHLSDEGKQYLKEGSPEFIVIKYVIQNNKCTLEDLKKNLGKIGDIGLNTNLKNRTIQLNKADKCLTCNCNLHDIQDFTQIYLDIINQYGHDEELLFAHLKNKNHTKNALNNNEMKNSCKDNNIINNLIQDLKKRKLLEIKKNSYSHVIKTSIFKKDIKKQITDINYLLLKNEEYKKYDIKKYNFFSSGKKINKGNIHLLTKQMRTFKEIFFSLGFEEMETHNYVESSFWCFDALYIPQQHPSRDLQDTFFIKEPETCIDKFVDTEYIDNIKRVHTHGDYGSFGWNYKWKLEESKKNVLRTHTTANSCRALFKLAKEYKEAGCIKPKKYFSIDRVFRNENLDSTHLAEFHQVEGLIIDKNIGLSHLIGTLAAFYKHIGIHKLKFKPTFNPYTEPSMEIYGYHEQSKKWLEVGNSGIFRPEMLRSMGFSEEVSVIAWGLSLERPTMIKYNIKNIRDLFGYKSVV
T1 sequence (Q8IIW2 1-623 partner): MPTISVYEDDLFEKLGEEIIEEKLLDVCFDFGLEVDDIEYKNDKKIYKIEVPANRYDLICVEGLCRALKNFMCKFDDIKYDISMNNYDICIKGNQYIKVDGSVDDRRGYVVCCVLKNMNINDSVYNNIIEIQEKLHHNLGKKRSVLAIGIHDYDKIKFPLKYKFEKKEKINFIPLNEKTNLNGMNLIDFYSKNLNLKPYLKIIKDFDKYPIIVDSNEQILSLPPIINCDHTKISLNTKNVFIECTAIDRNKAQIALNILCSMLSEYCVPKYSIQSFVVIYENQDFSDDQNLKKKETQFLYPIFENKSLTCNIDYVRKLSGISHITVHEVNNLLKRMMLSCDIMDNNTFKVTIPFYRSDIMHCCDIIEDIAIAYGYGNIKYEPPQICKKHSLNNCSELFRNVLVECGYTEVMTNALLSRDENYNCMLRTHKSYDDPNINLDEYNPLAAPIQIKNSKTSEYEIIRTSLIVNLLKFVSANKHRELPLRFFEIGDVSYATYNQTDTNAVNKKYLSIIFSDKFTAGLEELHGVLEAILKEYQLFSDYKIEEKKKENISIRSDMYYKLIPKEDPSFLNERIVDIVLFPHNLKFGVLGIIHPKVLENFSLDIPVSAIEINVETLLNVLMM
Method: These were done using malachite green assay as per earlier published reports[1],[6]. Briefly, the reaction was performed for 100 µM ATP, 50 µM L-phenylalanine and 100 nM recombinant PheRS enzymes (Pf, Pv, Hs, Pf mutant (L550V)) in a buffer containing 30 mM HEPES (pH 7.5), 150 mM, NaCl, 30 mM KCl, 50 mM, MgCl2, 1 mM DTT, and 2 U/ml E. coli inorganic pyrophosphatase (NEB) at 37 °C. Enzymatic reactions (50 μl total volume) were performed in clear, flat-bottomed, 96-well plates (Costar 96-well standard microplates). The reaction mixture was incubated for 2 h at 37 °C. The reaction was stopped by adding 12.5 μl of malachite green solution to the reaction mixture and levels of inorganic phosphate (Pi) were detected after incubation of 5 min at room temperature. Absorbance was the measured at 620 nm using a Spectramax M2 (Molecular Devices). Reactions without FRS enzyme were performed as background controls, values of which were subtracted from the reactions with enzyme. BRD1389 was added to our aminoacylation assay reaction buffer in varying concentrations ranging from 0.1 nM to 10,000 nM. The IC50 value for the data is shown for three replicates as the mean ± SD.
To establish the mode of inhibition of BRD1389, data sets (generated using the malachite Green assay platform as described in the above enzyme inhibition assays method section) were collected by varying both the inhibitor and substrate concentrations.

[1] = test system: Plasmodium falciparum strain 3D7; assay: Parasite growth inhibition (drug susceptibility test, pLDH readout); assay type: cell-based
Method: The cultivation of P. falciparum was conducted according to Trager’s method with some modification. Precisely, parasites were kept in culture flasks with RPMI1640 medium supplemented with 10% human plasma and 2% fresh human erythrocytes and incubated at 37 °C with the gas condition of 5% CO2 and 5% O2. The parasitemia (percentage of infected erythrocytes to total erythrocytes) were kept within 0.25–10%. Culture medium was replaced, and fresh erythrocytes were supplied every 2–3 days. Drug susceptibility test was conducted according to Desjardins’s method[18] with some modification. […] […] The plates were kept at 37 °C with the gas condition of 5% CO2 and 5% O2 for 72 h and then parasite growth was quantified with Makler’s method to detect plasmdoial lactate dehydrogenase[19] with some modification. Precisely, culture plates were kept in freezer overnight and then thawed at 37 °C to disrupt the erythrocytes and parasite cells. In the new 96-well titer plates, 100 μl of enzyme reaction solution (110 mM Li-lactate, 0.5 mM acetylpyridine-adenine dinucleotide, 50 mM Tris (pH 7.5), 10 mM EDTA, 50 mM KCl, and 15 g l^−1 PEG6000) and 20 µl of freeze-thaw culture were mixed in each well and then kept at room temperature for 30 min. The detection solution was prepared by mixing equal volume of 2 mg ml^−1 nitro blue tetrazolium and 0.1 mg ml^−1 phenazine ethosulfate and 20 µl of the solution was added to each well.

[2] = ATP 15.6 uM, saturating L-Phe 1000 μM
[3] = ATP 31.25 uM, saturating L-Phe 1000 μM
[4] = ATP 62.5 uM, saturating L-Phe 1000 μM
[5] = ATP 125 uM, saturating L-Phe 1000 μM
[6] = ATP 250 uM, saturating L-Phe 1000 μM
[7] = ATP 500 uM, saturating L-Phe 1000 μM
[8] = L-Phe 0.015625 mM, saturating ATP 500 μM
[9] = L-Phe 0.031 mM, saturating ATP 500 μM
[10] = L-Phe 0.0625 mM, saturating ATP 500 μM
[11] = L-Phe 0.125 mM, saturating ATP 500 μM
[12] = L-Phe 0.25 mM, saturating ATP 500 μM
[13] = L-Phe 0.5 mM, saturating ATP 500 μM
[14] = L-Phe 1 mM, saturating ATP 500 μM

COC[C@@H]1[C@H](c2ccc(C#Cc3ccccc3)cc2)[C@@H]2CN(C(=O)Nc3ccc(OC4CC4)cc3)C[C@@H](O)[C@@H](O)CN12 [BRD1389]
Ki (PfcFRS; ATP varied, L-Phe saturating, non-competitive inhibition model): 10 ± 5 nM
Ki (PfcFRS; L-Phe varied, ATP constant, global competitive inhibition model): 6 ± 2 nM
Mode of inhibition with respect to ATP (PfcFRS; PfcFRS, ATP varied at saturating L-Phe): non-competitive inhibition; also recorded: likely a non-competitive inhibitor
Mode of inhibition with respect to L-Phe (PfcFRS; PfcFRS, L-Phe varied at saturating ATP): competitive inhibition; also recorded: competitive inhibitor
1/v (0.5 × IC50 ) (PfcFRS; [2]): 50.7634
1/v (0.5 × IC50 ) (PfcFRS; [3]): 35.2611
1/v (0.5 × IC50 ) (PfcFRS; [4]): 25.2226
1/v (0.5 × IC50 ) (PfcFRS; [5]): 18.8398
1/v (0.5 × IC50 ) (PfcFRS; [6]): 16
1/v (0.5 × IC50 ) (PfcFRS; [7]): 13.77
1/v (0.5 × IC50 ) (PfcFRS; [8]): 19.05
1/v (0.5 × IC50 ) (PfcFRS; [9]): 12.5
1/v (0.5 × IC50 ) (PfcFRS; [10]): 10
1/v (0.5 × IC50 ) (PfcFRS; [11]): 8.3
1/v (0.5 × IC50 ) (PfcFRS; [12]): 7.2
1/v (0.5 × IC50 ) (PfcFRS; [13]): 6.5
1/v (0.5 × IC50 ) (PfcFRS; [14]): 6.2
1/V (1 × IC50 ) (PfcFRS; [2]): 66.6667
1/V (1 × IC50 ) (PfcFRS; [3]): 44.4444
1/V (1 × IC50 ) (PfcFRS; [4]): 40.1698
1/V (1 × IC50 ) (PfcFRS; [5]): 25.8
1/V (1 × IC50 ) (PfcFRS; [6]): 20
1/V (1 × IC50 ) (PfcFRS; [7]): 13.7741
1/v (1 × IC50 ) (PfcFRS; [8]): 30
1/v (1 × IC50 ) (PfcFRS; [9]): 18.03
1/v (1 × IC50 ) (PfcFRS; [10]): 12
1/v (1 × IC50 ) (PfcFRS; [11]): 9
1/v (1 × IC50 ) (PfcFRS; [12]): 8
1/v (1 × IC50 ) (PfcFRS; [13]): 7.2
1/v (1 × IC50 ) (PfcFRS; [14]): 7
% Parasite Growth ([1]; 3D7, 0.000976562 ug/mL): 93.5%
% Parasite Growth ([1]; 3D7, 0.00195312 ug/mL): 94.1%
% Parasite Growth ([1]; 3D7, 0.00390625 ug/mL): 94.0%
% Parasite Growth ([1]; 3D7, 0.0078125 ug/mL): 47.5%
% Parasite Growth ([1]; 3D7, 0.015625 ug/mL): 14.7%
% Parasite Growth ([1]; 3D7, 0.03125 ug/mL): 8.9%
% Parasite Growth ([1]; 3D7, 0.0625 ug/mL): 2.0%
% Parasite Growth ([1]; 3D7, 0.125 ug/mL): 1.8%
% Parasite Growth ([1]; 3D7, 0.25 ug/mL): 1.5%
% Parasite Growth ([1]; 3D7, 0.5 ug/mL): 1.7%
% Parasite Growth ([1]; 3D7, 1 ug/mL): 2.2%
IC50 ([1]; Plasmodium falciparum, 3D7): 0.00753 µg/mL and 13.3 nM
EC50 ([1]; Plasmodium falciparum, 3D7, 72 h): 13 nM
